In brackets after ≈: the same amount, converted by molar mass. Several values for one entry are separate records, joined by “and”; a condition that tells them apart may be missing. Identical values can stand only once. Like-named read-outs stand apart in the source and are kept apart here.
Assays:
MRSA 01 [1] = experiment: Colony-forming unit (CFU) in skin lesions of mice challenged with MRSA 01; type: in vivo, Staphylococcus aureus; conditions: female Balb/c mice, MRSA 01 skin lesion, topical twice daily for three days, Experiment 1
Description: Three animal studies were performed with niclosamide and fusidic acid as comparison with different formulations and doses.
In each experiment, female Balb/c mice received a skin lesion approximately 1 cm^2 and were challenged with 1.5×10^8 cfu MRSA 01 topically. Twenty-four hours after the wound formation and the contamination, mice were treated topically with 0.05 ml twice daily for three days. Mice were sacrificed on day 4, skin lesions were excised and cfu quantitated. Fusidin ointment (2% from Leo Pharma) was included as control.

P. aeruginosa = conditions: cited from earlier work
[2] = tested on: quorum sensing response in P. aeruginosa; conditions: reduction of quorum sensing response in P. aeruginosa; cited from earlier work
[3] = tested on: Streptococcus pyogenes strains; experiment: MIC assay, Example 2, S. pyogenes strains (in BHI); type: cell-based
Description: Strains were conserved in Luria Bertani (LB) Broth (S. aureus) or Brain Heart Infusion (BHI) (S. pyogenes) supplemented with glycerol 15% (v/v) at −80° C., and reactivated by isolation on LB (S. aureus) or BHI (S. pyogenes) agar plates. Strains were cultivated in Mueller Hinton (MH) Broth-cation adjusted (S. aureus) or BHI (S. pyogenes). All strains were cultivated aerobically (microaerobically for S. pyogenes strains) at 37° C. […] Bacterial cultures were stopped in their exponential growth phase and plates were inoculated with the approximate concentration of 5×10^5 cells per well.

[4] = cats, p.o.; cited from earlier work
MRSA 01 [5] = experiment: Effect of pH on the antibacterial activity (MIC) of niclosamide; type: cell-based, Staphylococcus aureus; conditions: for MIC: Staphylococcus aureus, MRSA
Description: This strain was conserved in Luria Bertani (LB) Broth supplemented with glycerol 15% (v/v) at −80° C., and reactivated by isolation on LB agar plates. It was then cultivated aerobically in Mueller Hinton (MH) Broth-cation adjusted at 37° C.
The pH of Mueller-Hinton Broth cation-adjusted was adjusted with HCl 2M to 7, 6.5, 6, 5.5, 5, 4.5 and […]. Ten ml of medium for each pH were prepared. pH of non-adjusted MHBII was equal to 7.4.
Each pH-adjusted samples were filtered on 0.2 μm filters before being used for the MIC determination assay.
Bacterial culture was stopped in its exponential growth phase and plates were inoculated with the approximate concentration of 5×10^5 cells per well. Plates were incubated at 37° C. for 18 hours (S. aureus).
The experiment was performed in triple biological replicates.

S. aureus strains = experiment: Minimum Inhibitory Concentration (MIC) assay, Example 1, S. aureus strains; type: cell-based; conditions: Staphylococcus aureus
Description: (§1) Strains were conserved in Luria Bertani (LB) Broth (S. aureus) or Brain Heart Infusion (BHI) (S. pyogenes) supplemented with glycerol 15% (v/v) at −80° C., and reactivated by isolation on LB (S. aureus) or BHI (S. pyogenes) agar plates. Strains were cultivated in Mueller Hinton (MH) Broth-cation adjusted (S. aureus) supplemented with lysed horse blood 2.5% (v/v) (S. pyogenes). All strains were cultivated at 37° C., aerobically for S. aureus strains.
(§2) Bacterial cultures were stopped in their exponential growth phase and plates were inoculated with the approximate concentration of 10^3 cells per well. Plates were incubated at 37° C. for 18 hours (S. aureus) or 24 hours (S. pyogenes). Optical density at a wavelength of 600 nm was measured at the end of the incubation time. […] Experiments were performed at least as triplicate biological replicates with all strains.

S. pyogenes strains = experiment: Minimum Inhibitory Concentration (MIC) assay, Example 1, S. pyogenes strains; type: cell-based, Streptococcus pyogenes
Description: as §1, §2

[6] = cited from earlier work
MRSA 01 [7] = experiment: Time-kill assay; type: cell-based, Staphylococcus aureus; conditions: niclosamide 4 μg/ml (MIC×10), initial inoculum 7 log10 cfu/ml
Description: Assay was performed in 20 ml of medium. It included a negative control (medium without bacteria), a positive control (bacteria grown without niclosamide) and the assay (bacteria grown with niclosamide). […] This experiment was performed with the primary test microorganism indicated above.
The overnight culture was stopped and OD600 was measured. Culture was then diluted in indicated medium to obtain an OD600 of 0.25 in order to have about 5×10^8 cfu/ml. Two hundred μl of this diluted culture were then added in all conditions except in the negative control. Initial bacterial concentration was about 5×10^6 cfu/ml. Tubes were incubated aerobically at 37° C. for 24 hours.
Bacteria were enumerated before the incubation, after 30 minutes, 1, 2, 4, 8 and 24 hours of incubation by serial dilutions in NaCl 0.9% and plating on LB agar, with 2 plates per dilution. Plates were incubated at 37° C. and colonies enumerated after 24 hours.

[8] = S. pyogenes strains with MIC 0.0625 μg/ml
[9] = S. pyogenes strains with MIC 0.5 μg/ml
[10] = S. pyogenes strains with MIC […]

O=C(Nc1ccc([N+](=O)[O-])cc1Cl)c1cc(Cl)ccc1O [Niclosamide, 5-chloro-N-(2-chloro-4-nitrophenyl)-2-hydroxybenz-amide]
bacterial reduction (CFU in skin lesions) compared to control vehicles (MRSA 01 [1]): significant bacterial reductions | effect on growth of P. aeruginosa (P. aeruginosa): does not affect the growth | concentration at which some inhibition was detected [2]: 1 µM | concentration required for optimal activity [2]: 20 µM | MIC distribution (percentage of strains) [3, 8]: 25% | MIC distribution (ratio of strains) [3, 8]: (1/4) | MIC distribution (percentage of strains) [3, 9]: 25% | MIC distribution (ratio of strains) [3, 9]: (1/4) | MIC distribution (percentage of strains) [3, 10]: 25% | MIC distribution (ratio of strains) [3, 10]: (1/4) | MIC ([3]; Streptococcus pyogenes, all targeted S. pyogenes strains): ≤ 0.5 µg/mL | LD50 [4]: > 1000 mg/kg | inhibitory activity against MRSA 01 as a function of pH (MRSA 01 [5]; MRSA 01, pH 7.4 to 5.5): increased when pH was decreased | pH at which the maximal inhibitory effect was observed (MRSA 01 [5]; MRSA 01, pH-adjusted Mueller-Hinton Broth): 5.5 | MIC (MRSA 01 [5]; MRSA 01, pH 5.5 (actual pH 5.530), Replicate 3): ≤ 0.008 µg/mL | MIC (MRSA 01 [5]; MRSA 01, pH 5.5 (actual pH 5.547), Replicate 2): ≤ 0.008 µg/mL | MIC (MRSA 01 [5]; MRSA 01, pH 5.5 (actual pH 5.569), Replicate 1): ≤ 0.03 µg/mL | MIC (MRSA 01 [5]; MRSA 01, pH 6.0 (actual pH 5.893), Replicate 1): 0.06 µg/mL (≈ 0.183 µM) | MIC (MRSA 01 [5]; MRSA 01, pH 6.0 (actual pH 5.955), Replicate 2): 0.06 µg/mL (≈ 0.183 µM) | MIC (MRSA 01 [5]; MRSA 01, pH 6.0 (actual pH 5.980), Replicate 3): 0.016 µg/mL (≈ 0.0489 µM) | MIC (MRSA 01 [5]; MRSA 01, pH 6.5 (actual pH 6.512), Replicate 1): 0.125 µg/mL (≈ 0.382 µM) | MIC (MRSA 01 [5]; MRSA 01, pH 6.5 (actual pH 6.540), Replicate 3): 0.03 µg/mL (≈ 0.0917 µM) | MIC (MRSA 01 [5]; MRSA 01, pH 6.5 (actual pH 6.566), Replicate 2): 0.06 µg/mL (≈ 0.183 µM) | MIC (MRSA 01 [5]; MRSA 01, pH 7.0 (actual pH 6.921), Replicate 1): 0.25 µg/mL (≈ 0.764 µM) | MIC (MRSA 01 [5]; MRSA 01, pH 7.0 (actual pH 7.025), Replicate 3): 0.125 µg/mL (≈ 0.382 µM) | MIC (MRSA 01 [5]; MRSA 01, pH 7.0 (actual pH 7.071), Replicate 2): 0.125 µg/mL (≈ 0.382 µM) | MIC (MRSA 01 [5]; pH 7.4, MRSA 01, pH not adjusted (actual pH 7.4), Replicate 1): 0.5 µg/mL (≈ 1.53 µM) | MIC (MRSA 01 [5]; pH 7.4, MRSA 01, pH not adjusted (actual pH 7.4), Replicate 2): 0.25 µg/mL (≈ 0.764 µM) | MIC (MRSA 01 [5]; pH 7.4, MRSA 01, pH not adjusted (actual pH 7.4), Replicate 3): 0.5 µg/mL (≈ 1.53 µM) | MIC (S. aureus strains; S. aureus strains, read-out: Mic100 S. aureus): ≤ 0.4 µg/mL and ≤ 1.25 µM | MIC (S. aureus strains; against S. aureus strains, including strains resistant to fusidic acid and to mupirocin (FIG. 1), read-out: MIC): ≤ 0.4 µg/mL | MIC (S. pyogenes strains; Streptococcus pyogenes, S. pyogenes strains, read-out: Mic100 S. pyogenes): ≤ 3 µg/mL and ≤ 3 µM | MIC (S. pyogenes strains; against Streptococcus pyogenes strains (FIG. 1), read-out: MIC): ≤ 3.2 µg/mL | LD50 mice p.o ([6]; Table 3): >1500 mg/kg | LD50 ([6]; mice, p.o.): > 5000 mg/kg | bactericidal or bacteriostatic effect (time-kill curve) (MRSA 01 [7]): bacteriostatic effect
